Data published in patent publication US20180282281A1, “IMMUNOREGULATORY AGENTS” (FLEXUS BIOSCIENCES, INC., priority 2014, published 2018).

These molecules were tested against T1, human IDO1 (Homo sapiens, UniProt P14902) (assay: HEK293 human IDO1 cell-based IDO inhibition assay). Conditions: read-out: HEK Human IDO-1 Potency.
T1 construct: expressed in transfected cells
Experimental: 1HEK293 cells were transfected with a pCDNA-based mammalian expression vector harboring human IDO1 cDNA (NM 002164.2) by electroporation. They were cultured in medium (DMEM with 10% FBS) containing 1 mg/ml G418 for two weeks. Clones of HEK293 cells that stably expressed human IDO1 protein were selected and expanded for IDO inhibition assay.
The human IDOL/HEK293 cells were seeded at 10,000 cells per 50 μL per well with RPMI/phenol red free media contains 10% FBS in a 384-well black wall clear bottom tissue culture plate (Matrix Technologies LLC) 100 nL of certain concentration of compound was then added to each well using ECHO liquid handling systems. The cells were incubated for 20 hours in 37° C. incubator with 5% CO2.
The compound treatments were stopped by adding Trichloroacetic Acid (Sigma-Aldrich) to a final concentration at 0.2%. The cell plate was further incubated at 50° C. for 30 minute. The equal volume supernatant (20 μL) and 0.2% (w/v) Ehrlich reagent (4-dimethylaminobenzaldehyde, Sigma-Aldrich) in glacial acetic acid were mixed in a new clear bottom 384-well plate. This plate was then incubated at room temperature for 30 minute. The absorbance at 490 nm was measured on Envision plate reader.

T1 sequence (P14902 whole entry): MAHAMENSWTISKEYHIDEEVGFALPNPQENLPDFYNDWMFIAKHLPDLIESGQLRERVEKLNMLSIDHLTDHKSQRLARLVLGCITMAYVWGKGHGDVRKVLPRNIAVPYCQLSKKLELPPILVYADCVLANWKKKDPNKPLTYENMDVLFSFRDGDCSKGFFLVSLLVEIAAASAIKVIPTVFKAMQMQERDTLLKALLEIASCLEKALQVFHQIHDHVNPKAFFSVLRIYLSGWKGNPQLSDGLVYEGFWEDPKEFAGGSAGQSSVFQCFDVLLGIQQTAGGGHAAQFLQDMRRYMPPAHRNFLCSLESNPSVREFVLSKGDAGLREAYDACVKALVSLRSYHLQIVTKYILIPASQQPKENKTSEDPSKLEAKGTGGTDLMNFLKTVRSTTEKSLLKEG

`CC(C(=O)O)c1ccc(C[C@@H](C(=O)Nc2ccc(Cl)cc2)[C@H]2CC[C@@H](c3ccnc4ccc(F)cc43)CC2)cc1` (mixture of isomers) [Example 137, 2-(4-((R)-3-((4-Chlorophenyl)amino)-2-((cis)-4-(6-fluoroquinolin-4-yl)cyclohexyl)-3-oxopropyl)phenyl)propanoic Acid] and `CC(C(=O)O)c1ccc(C[C@@H](C(=O)Nc2ccc(Cl)cc2)[C@H]2CC[C@@H](c3ccnc4ccccc43)CC2)cc1` (single isomer, unassigned) [Example 87a] cannot be ordered by IC50: < 50 nM for the first, < 50 nM for the second.

First: CCC(C(=O)Nc1ccc(Cl)cc1)C1CCC(c2ccnc3ccc(F)cc23)CC1 (mixture of isomers) [Example 154, N-(4-Chlorophenyl)-2-(4-(6-fluoroquinolin-4-yl)cyclohexyl)butanamide]
Second: CCC(C(=O)Nc1ccc(Cl)cc1)C1CCN(c2ccnc3ccc(F)cc23)CC1 (racemic) [Example 243, (±)—N-(4-Chlorophenyl)-2-(1-(6-fluoroquinolin-4-yl)piperidin-4-yl)butanamide]
The IC50 of the first is lower: < 50 nM for the first, > 250 nM for the second. The first is the more potent here.

Compared with `CCC(C(=O)Nc1ccc(Cl)cc1)[C@H]1CC[C@H](Oc2ccnc3cc(C(F)(F)F)ccc23)CC1` (mixture of isomers) [Example 83, (±)—N-(4-Chlorophenyl)-2-((trans)-4-((7-(trifluoromethyl)quinolin-4-yl)oxy)cyclohexyl)butanamide], `CCC(C(=O)Nc1ccc(Cl)cc1)[C@H]1CC[C@@H](Oc2ccnc3ccc(C(F)(F)F)cc23)CC1` (mixture of isomers) [Example 89, (±)—N-(4-Chlorophenyl)-2-((cis)-4-((6-(trifluoromethyl)quinolin-4-yl)oxy)cyclohexyl)butanamide] is higher in IC50: < 250 nM for the first, > 250 nM for the second.

Compared with `CCC(C(=O)Nc1ccc(Cl)cc1)[C@H]1CC[C@H](Oc2cc(C(F)(F)F)nc3ccccc23)CC1` (mixture of isomers) [Example 84, (±)—N-(4-Chlorophenyl)-2-((trans)-4-((2-(trifluoromethyl)quinolin-4-yl)oxy)cyclohexyl)butanamide], `CCC(C(=O)Nc1ccc(Cl)cc1)[C@H]1CC[C@@H](Oc2cc(C(F)(F)F)nc3ccccc23)CC1` (mixture of isomers) [Example 88, (±)—N-(4-Chlorophenyl)-2-((cis)-4-((2-(trifluoromethyl)quinolin-4-yl)oxy)cyclohexyl)butanamide] is lower in IC50: > 250 nM for the first, < 50 nM for the second.

First: CCC(C(=O)Nc1ccc(Cl)cc1)[C@H]1CC[C@H](Oc2ccnc3ccccc23)CC1 (mixture of isomers) [Example 85, (±)—N-(4-Chlorophenyl)-2-((trans)-4-(quinolin-4-yloxy)cyclohexyl)butanamide]
Second: CCC(C(=O)Nc1ccc(Cl)cc1)[C@H]1CC[C@H](Oc2ccnc3cc(C(F)(F)F)ccc23)CC1 (single isomer, unassigned) [Example 83a, N-(4-Chlorophenyl)-2-((trans)-4-((7-(trifluoromethyl)quinolin-4-yl)oxy)cyclohexyl)-2-butanamide]
The IC50 of the first is lower: < 50 nM for the first, > 250 nM for the second. The first is the more potent here.

Compared with `Cc1ccc(NC(=O)C(C)N2CCC(Oc3ccc4nccc(Cl)c4c3)CC2)cc1` (racemic) [Example 92, (±)-2-(4-((4-Chloroquinolin-6-yl)oxy)piperidin-1-yl)-N-(p-tolyl)propanamide], `CC(C(=O)Nc1ccc(Cl)cc1)N1CCC(Oc2ccc3nccc(Cl)c3c2)CC1` (single isomer, unassigned) [Example 93] is lower in IC50: > 250 nM for the first, < 50 nM for the second.

Compared with `CC(C(=O)Nc1ccc(Cl)cc1)N1CCC(Oc2ccnc3ccc(F)cc23)CC1` (racemic) [Example 96, (±)—N-(4-Chlorophenyl)-2-(4-((6-fluoroquinolin-4-yl)oxy)piperidin-1-yl)propanamide], `CC(C)C(C(=O)Nc1ccc(Cl)cc1)N1CCC(Oc2ccnc3ccc(F)cc23)CC1` (racemic) [Example 102, (±)—N-(4-Chlorophenyl)-2-(4-((6-fluoroquinolin-4-yl)oxy)piperidin-1-yl)-3-methylbutanamide] is higher in IC50: < 50 nM for the first, > 250 nM for the second. The first is the more potent here.

`CC(C(=O)Nc1ccc(Cl)cc1)N1CCN(c2ccnc3ccc(F)cc23)CC1` (racemic) [Example 126, (±)—N-(4-Chlorophenyl)-2-(4-(6-fluoroquinolin-4-yl)piperazin-1-yl)propanamide] and `CC(C(=O)Nc1ccc(Br)cc1)N1CCN(c2ccnc3ccc(F)cc23)CC1` (racemic) [Example 127, (±)—N-(4-Bromophenyl)-2-(4-(6-fluoroquinolin-4-yl)piperazin-1-yl)propanamide] cannot be ordered by IC50: > 250 nM for the first, > 250 nM for the second.

`CC(C(=O)Nc1ccccc1)N1CCN(c2ccnc3ccc(F)cc23)CC1` (racemic) [Example 128, (±)-2-(4-(6-Fluoroquinolin-4-yl)piperazin-1-yl)-N-phenylpropanamide] and `CCC(C(=O)Nc1ccccc1)N1CCN(c2ccnc3ccc(F)cc23)CC1` (racemic) [Example 132, (±)-2-(4-(6-Fluoroquinolin-4-yl)piperazin-1-yl)-N-phenylbutanamide] cannot be ordered by IC50: > 250 nM for the first, > 250 nM for the second.

`CCC(C(=O)Nc1ccc(Cl)cc1)N1CCN(c2ccnc3ccc(F)cc23)CC1` (racemic) [Example 131, (±)—N-(4-Chlorophenyl)-2-(4-(6-fluoroquinolin-4-yl)piperazin-1-yl)butanamide] and `CCCC(C(=O)Nc1ccc(Cl)cc1)N1CCN(c2ccnc3ccc(F)cc23)CC1` (racemic) [Example 244, (±)—N-(4-Chlorophenyl)-2-(4-(6-fluoroquinolin-4-yl)piperazin-1-yl)pentanamide] cannot be ordered by IC50: < 50 nM for the first, < 250 nM for the second.

Going from `COCC(C(=O)Nc1ccc(Cl)cc1)N1CCN(c2ccnc3ccc(F)cc23)CC1` (racemic) [Example 133, (±)—N-(4-Chlorophenyl)-2-(4-(6-fluoroquinolin-4-yl)piperazin-1-yl)-3-methoxypropanamide] to `COCC(C(=O)Nc1ccc(F)cc1)N1CCN(c2ccnc3ccc(F)cc23)CC1` (racemic) [Example 134, (±)—N-(4-Fluorophenyl)-2-(4-(6-fluoroquinolin-4-yl)piperazin-1-yl)-3-methoxypropanamide], the IC50 falls from > 250 nM to < 250 nM.

`CC(C(=O)Nc1ccc(Cl)cc1)C1CCC(c2ccnc3ccnn23)CC1` (racemic) [Example 143, (±)—N-(4-chlorophenyl)-2-(cis- and trans-4-(pyrazolo[1,5-a]pyrimidin-7-yl)cyclohexyl)propanamide] and `CC(C(=O)Nc1ccc(Cl)cc1)C1CCC(c2ccnc3ncccc23)CC1` (racemic) [Example 147, (±)-2-(Cis- and trans-4-(1,8-naphthyridin-4-yl)cyclohexyl)-N-(4-chlorophenyl)propanamide] cannot be ordered by IC50: < 250 nM for the first, < 50 nM for the second.

`CC(C(=O)Nc1ccc(Cl)cc1)C1CCC(c2ccnc3cn[nH]c23)CC1` (racemic) [Example 149, (±)-2-(Cis- and trans-4-(1H-pyrazolo[4,3-b]pyridin-7-yl)cyclohexyl)-N-(4-chlorophenyl)propanamide] and `CC(C(=O)Nc1ccc(Cl)cc1)[C@H]1CC[C@H](Oc2ccnc3ncccc23)CC1` (mixture of isomers) [Example 153, (±)-2-((trans)-4-((1,8-Naphthyridin-4-yl)oxy)cyclohexyl)-N-(4-chlorophenyl)propanamide] cannot be ordered by IC50: < 50 nM for the first, < 50 nM for the second.

`CC(C(=O)Nc1ccc(Cl)cc1)[C@]1(F)CC[C@H](c2ccnc3ccc(F)cc32)CC1` (mixture of isomers) [Example 233, (+/−)—N-(4-chlorophenyl)-2-(trans-1-fluoro-4-(6-fluoroquinolin-4-yl)cyclohexyl) propanamide] and `CCC(C(=O)Nc1ccc(Cl)cc1)[C@H]1CC[C@@H](Oc2ccnc3ccc(C(F)(F)F)cc23)CC1` (single isomer, unassigned) [Example 89a, N-(4-Chlorophenyl)-2-((cis)-4-((6-(trifluoromethyl)quinolin-4-yl)oxy)cyclohexyl)butanamide] cannot be ordered by IC50: < 50 nM for the first, < 250 nM for the second.

`CCCC(C(=O)NC1(C)CCCCC1)N1CCN(c2ccnc3ccc(F)cc23)CC1` (racemic) [Example 247, (±)-2-(4-(6-Fluoroquinolin-4-yl)piperazin-1-yl)-N-(1-methylcyclohexyl)pentanamide] and `CCC(C(=O)Nc1ccc(Cl)cc1)[C@H]1CC[C@@H](Oc2ccnc3ccc(C(F)(F)F)cc23)CC1` (single isomer, unassigned) [Example 89b, N-(4-Chlorophenyl)-2-((cis)-4-((6-(trifluoromethyl)quinolin-4-yl)oxy)cyclohexyl)butanamide] cannot be ordered by IC50: > 250 nM for the first, > 250 nM for the second.

`CCC(C(=O)Nc1ccc(Cl)cc1)[C@H]1CC[C@H](Oc2ccnc3cc(C(F)(F)F)ccc23)CC1` (single isomer, unassigned) [Example 83b, N-(4-Chlorophenyl)-2-((trans)-4-((7-(trifluoromethyl)quinolin-4-yl)oxy)cyclohexyl)-2-butanamide] and `CCC(C(=O)Nc1ccc(Cl)cc1)[C@H]1CC[C@@H](Oc2cc(C(F)(F)F)nc3ccccc23)CC1` (single isomer, unassigned) [Example 88a, N-(4-Chlorophenyl)-2-((cis)-4-((2-(trifluoromethyl)quinolin-4-yl)oxy)cyclohexyl)butanamide] cannot be ordered by IC50: < 250 nM for the first, < 50 nM for the second.

With `CCC(C(=O)Nc1ccc(Cl)cc1)[C@H]1CC[C@@H](Oc2cc(C(F)(F)F)nc3ccccc23)CC1` (single isomer, unassigned) [Example 88b, N-(4-Chlorophenyl)-2-((cis)-4-((2-(trifluoromethyl)quinolin-4-yl)oxy)cyclohexyl)butanamide] the IC50 was < 250 nM.
